Data from ChEMBL document CHEMBL2202983, “Structure-anti-leukemic activity relationship study of ortho-dihydroxycoumarins in U-937 cells: key role of the δ-lactone ring in determining differentiation-inducing potency and selective pro-apoptotic action” (Bioorg Med Chem, 2012).
Calls of active or inactive are those of the source. The calls are words filed in the database; no cut-off is given here.

Test system: U-937
Assay: Induction of apoptosis in human U937 cells assessed as activation of caspase-3 at 1000 uM after 48 hrs by colorimetric assay
Assay type: functional, cell-based
Conditions: not given

Which Activity does the source give for `O=C(O)/C=C/c1ccc(O)c(O)c1` [CAFFEIC ACID] here?
The Activity was “inactive”.

Test system: U-937
Assay: Induction of apoptosis in human U937 cells assessed as activation of caspase-3 at 500 uM after 24 hrs by colorimetric assay
Assay type: functional, cell-based
Conditions: not given

Which Activity does the source give for `COc1ccc2c(C)cc(=O)oc2c1OC` here?
The Activity was “inactive”.

For `Cc1cc(O)nc2cc(O)ccc12`, which Activity is on record?
Its Activity is “inactive”.

For `Cc1cc(=O)oc2cc(O)c(Cl)cc12`, which Activity is on record?
The Activity was “inactive”.

Which Activity does the source give for `CC(=O)c1c(O)ccc2c(C)cc(=O)oc12` here?
Its Activity is “inactive”.

For `Cc1cc(=O)oc2cc(O)ccc12` [HYMECROMONE], which Activity is on record?
Its Activity is “inactive”.

Test system: U-937
Assay: Induction of apoptosis in human U937 cells assessed as reduction of normal cells at 1000 uM after 24 hrs by Annexin V-FITC double staining
Assay type: functional, cell-based
Conditions: not given

Which Activity does the source give for `O=C(O)/C=C/c1ccc(O)c(O)c1` [CAFFEIC ACID] here?
The Activity was “inactive”.

Test system: U-937
Assay: Induction of apoptosis in human U937 cells assessed as phosphatidylserine expression in plasma membrane at 500 uM after 24 hrs by Annexin V-FITC double staining
Assay type: functional, cell-based
Conditions: not given

With `COc1ccc2c(C)cc(=O)oc2c1OC` as the molecule, how does the Activity read?
The Activity was “Active”.

Test system: U-937
Assay: Inhibition of clonogenic activity in human U937 cells assessed as reduction of colony formation in soft agar at 100 to 250 uM after 24 hrs using crystal violet staining
Assay type: functional, cell-based
Conditions: not given

For `COc1ccc2c(C)cc(=O)oc2c1OC`, which “colony formation inhibition (active/not active)” value is on record?
Its value is “inactive”.

For `O=C(O)/C=C/c1ccc(O)c(O)c1` [CAFFEIC ACID], which “colony formation inhibition (active/not active)” value is on record?
Its value is “inactive”.

Which “colony formation inhibition (active/not active)” value does the source give for `Cc1cc(=O)oc2cc(O)ccc12` [HYMECROMONE] here?
The value was “inactive”.

Test system: U-937
Assay: Cytotoxicity against human U937 cells after 48 hrs by trypan blue assay
Assay type: functional
Conditions: U-937, 48 h

Which CC50 does the source give for `COc1ccc2c(C)cc(=O)oc2c1OC` here?
The CC50 was over 2000 µM.

For `Cc1cc(O)nc2cc(O)ccc12`, which CC50 is on record?
The CC50 was over 1000 µM.

With `Cc1cc(=O)oc2cc(O)c(Cl)cc12` as the molecule, how does the CC50 read?
Its CC50 is 734 µM.

Which CC50 does the source give for `O=C(O)/C=C/c1ccc(O)c(O)c1` [CAFFEIC ACID] here?
Its CC50 is over 2000 µM.

With `CC(=O)c1c(O)ccc2c(C)cc(=O)oc12` as the molecule, how does the CC50 read?
Its CC50 is over 1000 µM.

Which CC50 does the source give for `Cc1cc(=O)oc2cc(O)ccc12` [HYMECROMONE] here?
The CC50 was over 2000 µM.

Test system: U-937
Assay: Antiproliferative activity against human U937 cells assessed as incorporation of [3H]-methyl-thymidine after 12 hrs by scintillation counting
Assay type: functional, cell-based
Conditions: not given

For `COc1ccc2c(C)cc(=O)oc2c1OC`, which IC50 is on record?
The IC50 was 736 µM.

With `Cc1cc(O)nc2cc(O)ccc12` as the molecule, how does the IC50 read?
Its IC50 is 259 µM.

With `Cc1cc(=O)oc2cc(O)c(Cl)cc12` as the molecule, how does the IC50 read?
The IC50 was 771 µM.

With `O=C(O)/C=C/c1ccc(O)c(O)c1` [CAFFEIC ACID] as the molecule, how does the IC50 read?
The IC50 was 316 µM.

With `CC(=O)c1c(O)ccc2c(C)cc(=O)oc12` as the molecule, how does the IC50 read?
Its IC50 is 454 µM.

Which IC50 does the source give for `Cc1cc(=O)oc2cc(O)ccc12` [HYMECROMONE] here?
The IC50 was 711 µM.

Test system: PBMC
Assay: Cytotoxicity against human PBMC at 500 uM after 48 hrs by trypan blue assay
Assay type: cell-based
Conditions: not given

With `COc1ccc2c(C)cc(=O)oc2c1OC` as the molecule, how does the Activity read?
Its Activity is “Non-toxic”.

Test system: Jurkat
Assay: Induction of apoptosis in human Jurkat cells assessed as activation of caspase-3-mediated PARP cleavage at 500 uM after 24 hrs by colorimetric assay
Assay type: functional, cell-based
Conditions: not given

With `COc1ccc2c(C)cc(=O)oc2c1OC` as the molecule, how does the Activity read?
The Activity was “inactive”.

Test system: U-937
Assay: Pro-oxidant activity in human U937 cells assessed as DCF-DA oxidation at 10 to 250 uM after 48 hrs by fluorescence assay
Assay type: functional, cell-based
Conditions: not given

Which Activity does the source give for `COc1ccc2c(C)cc(=O)oc2c1OC` here?
Its Activity is “inactive”.

For `Cc1cc(=O)oc2cc(O)ccc12` [HYMECROMONE], which Activity is on record?
Its Activity is “inactive”.

Test system: not listed separately
Assay: Induction of free radicals production in carbonate buffer at pH 9 by electron spin resonance analysis
Assay type: physicochemical
Conditions: not given

Which Activity does the source give for `O=C(O)/C=C/c1ccc(O)c(O)c1` [CAFFEIC ACID] here?
Its Activity is “Active”.

Test system: not listed separately
Assay: Induction of free radicals production in RPMI 1640 medium at pH 7.4 by electron spin resonance analysis
Assay type: physicochemical
Conditions: not given

Which Activity does the source give for `O=C(O)/C=C/c1ccc(O)c(O)c1` [CAFFEIC ACID] here?
Its Activity is “Active”.

Test system: not listed separately
Assay: Pro-oxidant activity in 0.1 M potassium phosphate buffer at pH 7.4 assessed as increase of oxidation potential by cyclic voltammetry analysis
Assay type: physicochemical
Conditions: not given

With `COc1ccc2c(C)cc(=O)oc2c1OC` as the molecule, how does the Activity read?
The Activity was “Not Active”.

Test system: U-937
Assay: Induction of cell differentiation in human U937 cells assessed as increase of rhC5a-induced response at 500 uM after 72 hrs by FACS flow cytometer analysis
Assay type: functional, cell-based
Conditions: not given

With `COc1ccc2c(C)cc(=O)oc2c1OC` as the molecule, how does the Activity read?
Its Activity is “inactive”.

Test system: U-937
Assay: Induction of cell differentiation in human U937 cells assessed as increase of CD88 expression at 500 uM after 72 hrs by FACS flow cytometer analysis
Assay type: functional, cell-based
Conditions: not given

For `COc1ccc2c(C)cc(=O)oc2c1OC`, which Activity is on record?
Its Activity is “inactive”.

Test system: U-937
Assay: Induction of cell differentiation in human U937 cells assessed as increase of CD11b and CD14 expression at 500 uM after 72 hrs by FACS flow cytometer analysis
Assay type: functional, cell-based
Conditions: not given

With `COc1ccc2c(C)cc(=O)oc2c1OC` as the molecule, how does the Activity read?
Its Activity is “inactive”.

For `Cc1cc(O)nc2cc(O)ccc12`, which Activity is on record?
Its Activity is “Active”.

With `Cc1cc(=O)oc2cc(O)c(Cl)cc12` as the molecule, how does the Activity read?
The Activity was “inactive”.

Which Activity does the source give for `CC(=O)c1c(O)ccc2c(C)cc(=O)oc12` here?
Its Activity is “Active”.

For `Cc1cc(=O)oc2cc(O)ccc12` [HYMECROMONE], which Activity is on record?
Its Activity is “Active”.
